The record followed here is patent publication US6291482A, “N-hydroxyurea derivative and pharmaceutical composition containing the same” (Nikken Chemicals Co., LTD, priority 1997, dated 2001).

Counter-ions that a name gives are not always drawn.

In one assay the target is T1, 5-lipoxygenase (Rattus norvegicus, UniProt P12527).
T1 construct: from tissue; host or cells: whole blood of male SD rats
T1 sequence (P12527 1-673): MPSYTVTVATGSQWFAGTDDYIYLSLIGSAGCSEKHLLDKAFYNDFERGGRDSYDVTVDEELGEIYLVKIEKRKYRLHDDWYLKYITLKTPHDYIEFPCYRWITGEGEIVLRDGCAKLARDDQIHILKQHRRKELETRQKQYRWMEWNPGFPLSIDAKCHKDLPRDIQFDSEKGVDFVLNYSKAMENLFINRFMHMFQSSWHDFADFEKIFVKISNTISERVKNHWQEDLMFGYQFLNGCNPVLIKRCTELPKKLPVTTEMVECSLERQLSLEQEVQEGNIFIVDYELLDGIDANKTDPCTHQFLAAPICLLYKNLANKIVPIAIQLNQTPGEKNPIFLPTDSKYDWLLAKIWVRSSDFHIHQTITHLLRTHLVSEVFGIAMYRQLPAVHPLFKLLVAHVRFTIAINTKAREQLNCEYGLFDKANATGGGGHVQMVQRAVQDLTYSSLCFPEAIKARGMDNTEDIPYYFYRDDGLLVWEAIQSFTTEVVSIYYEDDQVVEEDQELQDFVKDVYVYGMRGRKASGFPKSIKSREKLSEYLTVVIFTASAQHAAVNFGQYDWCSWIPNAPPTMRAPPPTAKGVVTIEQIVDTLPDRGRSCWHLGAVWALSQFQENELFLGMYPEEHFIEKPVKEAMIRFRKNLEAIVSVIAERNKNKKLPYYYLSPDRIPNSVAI
Kind of assay: Lipoxygenase inhibitory activity ex vivo (leukotriene B4 in blood after oral administration). The conditions noted are these: 1 h, SD male rats, one hour before blood sampling, read-out: LTBI ED50 (50% inhibitory amount). The source says: (§1) (Measurement of Lipoxygenase Inhibitory Activity and Thromboxane Synthase Inhibitory Activity in Ex Vivo)
(§2) For the test animals, SD male rats were used. These were made to fast from the day before the test. The test drug was suspended in 0.5% sodium carboxymethylcellulose and orally administered one hour before the blood was taken. The blood was taken from the abdominal aorta and divided for the measurement of the thromboxane synthase inhibitory activity and the 5-lipoxygenase inhibitory activity.
The 5-lipoxygenase activity was shown using as an indicator the amount of production of leukotriene B4. 50 μM calcium ionophor (A-23187) was added to the divided blood to start the reaction (37° C., 30 minutes), and 1 mM Indomethacin, 1 mM Phenidone, and 0.1 mM EGTA were added to stop the reaction. The plasma was centrifuged (3000 rpm, 20 minutes, 4° C.) and the leukotriene B4 in the plasma was measured by the EIA method.

In assay [1] the target is T2, thromboxane synthase (Rattus norvegicus, UniProt P49430).
T2 construct: The divided blood was allowed to naturally coagulate; from tissue; host or cells: whole blood of male SD rats, allowed to clot
T2 sequence (P49430 1-533): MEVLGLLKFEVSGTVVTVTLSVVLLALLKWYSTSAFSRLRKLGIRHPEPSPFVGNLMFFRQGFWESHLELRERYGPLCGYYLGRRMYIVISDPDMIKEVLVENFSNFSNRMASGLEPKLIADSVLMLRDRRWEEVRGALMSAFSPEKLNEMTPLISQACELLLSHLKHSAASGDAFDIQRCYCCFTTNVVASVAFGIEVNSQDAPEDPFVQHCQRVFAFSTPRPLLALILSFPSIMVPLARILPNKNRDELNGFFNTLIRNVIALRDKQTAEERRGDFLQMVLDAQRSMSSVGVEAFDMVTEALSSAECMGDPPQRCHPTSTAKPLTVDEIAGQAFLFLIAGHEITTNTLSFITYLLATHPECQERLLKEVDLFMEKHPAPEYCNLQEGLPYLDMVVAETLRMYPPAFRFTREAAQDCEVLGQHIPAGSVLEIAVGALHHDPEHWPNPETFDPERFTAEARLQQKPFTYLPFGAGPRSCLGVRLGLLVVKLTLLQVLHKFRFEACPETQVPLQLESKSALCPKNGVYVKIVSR
Put plainly: Thromboxane synthase inhibitory activity ex vivo (thromboxane B2 in serum after oral administration). The conditions noted are these: 1 h, SD male rats, one hour before blood sampling, read-out: TxSI ED50 (50% inhibitory amount).
From the text: as §1, §2
On the other hand, the thromboxane synthase activity was shown using as an indicator the amount of production of the thromboxane A2 stable metabolite thromboxane B2. The divided blood was allowed to naturally coagulate (25° C., 90 minutes) and then the serum was centrifuged (3000 rpm, 20 minutes, 4° C.) and the amount of thromboxane B2 in the serum was measured by the EIA method.

Assay [2] relates to antigen-induced bronchoconstriction. Put plainly: Antigen-induced bronchoconstriction model of guinea pig (Konzett-Rossler method). In kind it is in vivo. The conditions noted are these: 2 hours after administration, ovalbumin-sensitized guinea pigs. As for the experimental part:
(Pharmacological Activity on Antigen-Induced Bronchoconstriction Model of Guinea Pig)
Guinea pigs sensitized by ovalbumin were used and orally administered with the test compound suspended in 5% gum arabic. The activity for inhibiting antigen-induced bronchoconstriction after 2 hours after administration was measured by the Konzett-Rossler method.
Each of the sensitized guinea pigs (i.e., 5-7 pigs in one group) was anesthesized by 35 mg/kg pentobarbital, a cannula was inserted into the respiratory tract and connected to an artificial respirator, a cannula was inserted into the jugular vein, and treatment was performed by 5 mg/kg suxamethonium and 5 mg/kg mepyramine. Next, the guinea pig was inhaled a nebulized ovalbumin to cause bronchoconstriction and the activity in inhibiting bronchoconstriction was found from the ratio of the amount of overflow volume to the detector to the amount of air blown volume from the artificial respirator.
As the test compound, the present Compound (I) were used, and as the control, the above compound (A) and the thromboxane synthase inhibitor ozagrel hydrochloride (OKY-046) were used.

Assay [3] concerns the target T3, thromboxane synthase (Homo sapiens, UniProt P24557).
T3 construct: Human platelet microsomes were used; from tissue; host or cells: human platelet microsomes
T3 sequence (P24557 1-533): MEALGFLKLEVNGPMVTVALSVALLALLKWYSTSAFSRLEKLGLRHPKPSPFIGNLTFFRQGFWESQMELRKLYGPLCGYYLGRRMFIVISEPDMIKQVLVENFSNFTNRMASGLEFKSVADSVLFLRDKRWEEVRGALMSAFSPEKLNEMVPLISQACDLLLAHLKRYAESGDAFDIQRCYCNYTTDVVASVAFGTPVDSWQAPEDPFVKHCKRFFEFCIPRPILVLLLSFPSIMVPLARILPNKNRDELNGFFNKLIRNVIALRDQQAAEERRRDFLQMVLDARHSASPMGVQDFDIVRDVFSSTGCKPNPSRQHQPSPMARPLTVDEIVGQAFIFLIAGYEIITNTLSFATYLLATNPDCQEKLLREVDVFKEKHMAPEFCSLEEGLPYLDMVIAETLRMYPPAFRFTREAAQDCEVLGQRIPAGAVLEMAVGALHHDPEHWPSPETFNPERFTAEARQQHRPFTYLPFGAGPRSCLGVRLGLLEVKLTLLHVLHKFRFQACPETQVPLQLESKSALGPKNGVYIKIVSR
Put plainly: Test of thromboxane synthase inhibitory activity in vitro (thromboxane B2 production, platelet microsomes). In kind it is biochemical. Particulars: prostaglandin H2 substrate, read-out: TxSI IC50 (inhibition of production of thromboxane B2). The procedure:
(Test of Thromboxane Synthase Inhibitory Activity in In Vitro)
Human platelet microsomes were used and a test performed using as an indicator the amount of production of the thromboxane A2 stable metabolite thromboxane B2. A buffer solution (20 mM tris-HCl buffer solution, 1 mM EDTA, pH 7.5) containing human platelet microsomes (50 μg protein/ml) and the test compound (final concentration of 10^-6 M) was stirred, then incubated at 0° C. for 30 minutes, followed by adding prostaglandin H2 (100 ng/2 μl ). This was made acidic to stop the reaction, then neutralized with 1M Tris-base, then centrifuged at 3000 rpm for 20 minutes. The amount of the thromboxane B2 in the supernatant was measured by the EIA method (Cayman Co. kit).
(§3) As the test compound, the compound (I) was used for the test.

Another assay concerns the target T4, lipoxygenase (Rattus norvegicus, UniProt P12527).
T4 construct: the peritoneal cavities were lavaged and the polymorphonuclear leukocytes were recovered; endogenous in cells; host or cells: peritoneal polymorphonuclear leukocytes of male SD rats (casein-elicited)
T4 sequence (P12527 1-673): T1 sequence (P12527 1-673)
Kind of assay: Test of lipoxygenase inhibitory activity in vitro (leukotriene B4 production in polymorphonuclear leukocytes). In kind it is cell-based. Particulars: calcium ionophore A-23187, read-out: LTBI IC50 (inhibition of the production of leukotriene B4). The procedure: (Test of Lipoxygenase Inhibitory Activity in In Vitro)
Using rat polymorphonuclear leukocytes, a test was conducted using as an indicator the amount of production of leukotriene B4. SD male rats (Japan Clea) were intraperitoneally administered with 12% sodium casein. After 16 hours, the peritoneal cavities were lavaged and the polymorphonuclear leukocytes were recovered. The polymorphonuclear leukocytes thus obtained were suspended in a phosphate buffer (137 mM NaCl, 3 mM KCl, 8 mM Na2 HPO4, 2 mM KH2 PO4) (2.5×10^5 cells/0.4 ml), then the test compound (final concentration 10^-5 M) was added and incubation performed for 10 minutes at 37° C. then a calcium solution (10 mM CaCl2, 0.86% NaCl) 0.1 ml was added and incubation performed for 5 minutes, then 1.25 μl of calcium ionophore (20 μM, A-23187) was added and the reaction started. Five minutes after the addition, 250 μl of methanol was added to stop the reaction. After the reaction was stopped, the result was centrifuged for 20 minutes (4° C., 3000 rpm), then the amount of leukotriene B4 in the supernatant was measured by the EIA method (Cayman Co. kit).
as §3

As to `NC(=O)N(O)CC1=Cc2cc(OCc3cccnc3)ccc2OC1` [(B)], the ED50 at 5-lipoxygenase is 9 mg/kg; on thromboxane synthase [1], more than 10 mg/kg.
On to `NC(=O)N(O)CC1=Cc2cc(Oc3ccccc3)ccc2OC1` [Compound (A)], for which the ED50 is 1.7 mg/kg on 5-lipoxygenase and more than 30 mg/kg at thromboxane synthase [1]. Also, the “Suppression rate of respiratory constriction” value (shortened to “Suppression rate”) in assay [2] (100 mg/kg oral) was determined as 26%.
Regarding `NC(=O)N(O)CC1=Cc2cc(Cc3cccnc3)ccc2OC1` [Compound (I), N-hydroxy-N-[6-(3-pyridylmethyl)-2H-1-benzopyran-3-ylmethyl]urea], the ED50 came out at 1.7 mg/kg at 5-lipoxygenase and 1.5 mg/kg at thromboxane synthase [1]. The values for the IC50 at thromboxane synthase [3] and at lipoxygenase were 300 nM and 200 nM, respectively. Besides, the “Suppression rate” value in assay [2] (50 mg/kg oral) turned out to be 75%.
As for `O=C(O)/C=C/c1ccc(Cn2ccnc2)cc1` [OKY-046, ozagrel hydrochloride], the “Suppression rate” value in assay [2] (100 mg/kg oral) is given as 42%.
